Here are results for 1 molecule from US20260256792A1, “TREATMENT OF CHRONIC SPONTANEOUS URTICARIA BY ADMINISTERING (R)-2-[3-[4-AMINO-3-(2-FLUORO-4-PHENOXY-PHENYL)PYRAZOLO[3,4-D]PYRIMIDIN-1-YL]PIPERIDINE-1-CARBONYL]-4-METHYL-4-[4-(OXETAN-3-YL)PIPERAZIN-1-YL]PENT-2-ENENITRILE” (priority 2023, published 2026).

For the experiment, the system named is IL-31. The experiment is described as follows: Phase 2 CSU study: serum IL-31 HTRF assay. The format is in vivo, human. The note with it: for IL-31 (ng/mL) Median Percent Change from Baseline: Baseline to Week 12. From the text:
Blood samples were also collected through Week 12 to evaluate the change in baseline in various biomarkers, including sMRGPRX2, IgG anti-TPO, IgG anti-FCεRI, IgG anti-IgE, and IL-31.
Collection of biological samples for other biomarker research was also part of this study. The following samples for biomarker research were required and were to be collected from all participants in this study: • Serum and plasma samples for soluble biomarkers and cellular tests. Analytes included IgG anti-IgE, IgG anti-FcεRI, IgG anti-TPO, IgE anti-TPO, IL-31, and sMRGPRX2. • Blood samples for immune cell phenotyping, including measurement of eosinophil levels • Blood samples for BTK occupancy in peripheral blood mononuclear cells (PBMCs) at selected sites
For each patient, serum samples were to be collected on each of four visits (Visits 2, 4, 6, and end of study/follow up).
Serum analyte testing was to be performed using the following commercial assays: • sMRGPRX2 ELISA (Cat. No. #MBS933336; MyBioSource) • IL-31 HTRF assay (Cat. No. #62HIL31PEG; Cisbio/PerkinElmer) • IgG anti-TPO ELISA (Cat. No. #ORG503; Orgentec Diagnostica GmbH)
If dilutions were to be prepared, the same dilutions were to be prepared twice from each sample. These were to be measured on different plates. Each plate was to include a standard curve. Samples were to be measured twice for all biomarkers except for sMRGPRX2. Mean measurement values were to be calculated, and the concentration of the biomarker was to be calculated using GraphPad Prism 9 software (4-PL model).
The IL-31 HTRF assay was performed according to the manufacturer's instructions.
Assay data ranges are described below. • sMRGPRX2: 0.1 ng/mL-10 ng/mL • IgG anti-FCεRI: 0-10000 arbitrary units (AU) • IgG anti-TPO: 0-3000 international units (IU) • IgE anti-TPO: 0-500 AU • IgG anti-IgE: 0-100000 AU • IL-31: 0.1 ng/mL-20 ng/mL

Turning to `CC(C)(C=C(C#N)C(=O)N1CCC[C@@H](n2nc(-c3ccc(Oc4ccccc4)cc3F)c3c(N)ncnc32)C1)N1CCN(C2COC2)CC1` [rilzabrutinib, (R)-2-[3-[4-amino-3-(2-fluoro-4-phenoxy-phenyl)pyrazolo[3,4-d]pyrimidin-1-yl]piperidine-1-carbonyl]-4-methyl-4-[4-(oxetan-3-yl)piperazin-1-yl]pent-2-enenitrile], the “reduction from baseline median IL-31 levels” value (400 mg TID, Week 12) is given as 8.1%. Moreover, the “IL-31 (ng/mL) Median Percent Change from Baseline” value (400 mg BID) is given as −6.8%, the “IL-31 (ng/mL) Median Percent Change from Baseline” value (400 mg QPM) is on record as −11.6% and the “IL-31 (ng/mL) Median Percent Change from Baseline” value (400 mg TID) is listed as −8.1%.
